Results on three molecules are retold here after patent publication US20080255368A1, “Tgf-ß Gene Expression Inhibitor” (Nihon University, priority 2004, published 2008).

The test system of one experiment is TGF-β1 messenger RNA. The experiment in a line: Inhibition of expression of TGF-β1 messenger RNA in PMA-stimulated human mesangium cells (RT-PCR). The experiment is classed as cell-based. As to conditions: 12 hours serum-free; for inhibition of expression of TGFβ1 gene: 1×10^−6 M polyamide, 1×10^−6 M PMA stimulation, corrected with 18S. The method, then:
(6) Reverse Transcription-Polymerase Chain Reaction (RT-PCR) Assay for RNA Extraction and Growth Factor mRNA
The cultured cells were washed with PBS, dissolved in 1,000 μL of Trizol (Invitrogen), mixed with 100 μL of chloroform, and centrifuged, and an upper aqueous phase thereof was mixed with an equal volume of isopropanol to precipitate RNA. The resulting RNA pellet was washed twice with 500 μL of 75% ethanol, dried, and dissolved in 10 μL of TE buffer solution. The RNA sample was denatured for 15 minutes at 65° C., and treated at room temperature for 45 minutes with 0.5 U of DNase (Gibco) in 0.5 ml of DNase buffer solution (20 mM Tris-HCl pH 8.3, 50 mM KCl, 2.5 mM MgCl2. The DNase was inactivated by adding 0.5 mL of 0.5 M EDTA and heating at 98° C. for 10 minutes.
An equal volume of RNA (1 μg/20 μL) was reverse-transcribed into single-stranded cDNA by 2.5 U/20 μL of avian myeloblastoma virus reverse transcriptase (Takara Biochemicals, Osaka, Japan) in 10 mM Tris-HCl (pH 8.3), 5 mM MgCl2, 50 mM KCl, 1 mM deoxy-NTPs, and 2.5 μM random hexamer. Then, 2 μL of the diluted cDNA product was mixed with 10 mM Tris-HCl (pH 8.3), 50 mM KCl, 4 mM MgCl2, 0.025 U/μL Taq DNA polymerase (Takara Biochemicals, Osaka, Japan), and 0.2 μM each of upstream sense primer and downstream antisense primer in a final volume of 25 μL. The sense primer (5′-[…]-3′) (SEQ ID NO: 7) and the antisense primer (5′-[…]-3′) (SEQ ID NO: 8) were used for PCR amplification of hTGF-β1 mRNA. A sense primer (5′-[…]-3′) (SEQ ID NO: 9) and an antisense primer (5′-[…]-3′) (SEQ ID NO:. 10) to human 18S ribosomal RNA were used as an internal control. PCR was performed by a Thermal Cycler (Perkin Elmer, Foster, Calif.). […] For semi-quantitative analysis of mRNA, the numbers of cycles whereby PCR products were detectable on gels were compared among various samples. cDNAs by successively 10 times dilutions (100, 10, and 1 ng) were amplified. […]

Experiment [1] deals with double-stranded oligonucleotides corresponding to base pairs of an hTGF-β1 promoter. As to the kind of experiment: Gel shift assay of Py-Im polyamide-oligonucleotide complexes. The experiment is classed as binding, human. The note with it: 11-base double-stranded DNA containing the target sequence, compared with lanes with DS only, FIG. 3. On the procedure: Oligonucleotides were synthesized and annealed, and thereby 12 types of double-stranded oligonucleotides corresponding to base pairs of an hTGF-β1 promoter were prepared. A double-strand DNA was labeled with [γ-^32P]-ATP by T4 polynucleotide kinase. The labeled double-stranded DNA was then incubated for 15 minutes at 37° C. with a polyamide or a mismatch polyamide in a binding buffer solution (40 mM Tris, pH 7.9, 250 mM NaCl, 25 mM EDTA, 25 mM DTT, 100 mM KCl). The obtained complexes were separated by electrophoresis on 20% polyacrylamide gels and visualized by autoradiography.
The binding to target sequences of GB1105 and GBP1106 was examined by gel shift assay. Sense and antisense oligonucleotide having 11 bases containing each target sequence of Py-Im polyamide were prepared, annealed to prepare a double-stranded DNA to the target site, and incubated with each Py-Im polyamide. The obtained products were electrophoresed with polyacrylamide gel and the binding between Py-Im and the target sequence was examined.

On to `CCCCCCCCCCCCCC(=O)O[C@@H]1[C@@H](C)[C@@]2(O)[C@@H](C=C(CO)C[C@]3(O)C(=O)C(C)=C[C@@H]23)[C@@H]2C(C)(C)[C@]12OC(C)=O` [PMA, 12-o-tetradecanoylpholbol-13-acetate, reference compound], for which the “increase of expression of TGFβ1 gene” value in the experiment with TGF-β1 messenger RNA (1×10^−6 M of PMA stimulation, human mesangium cells) is reported as 20%.

In the case of `CC(=O)Nc1cn(C)c(C(=O)Nc2cc(C(=O)Nc3cn(C)c(C(=O)NCCC(=O)Nc4cc(C(=O)Nc5cc(C(=O)Nc6cc(C(=O)NCCCC(=O)Nc7cn(C)c(C(=O)Nc8cc(C(=O)Nc9cn(C)c(C(=O)NCCC(=O)Nc%10cc(C(=O)Nc%11cc(C(=O)Nc%12cc(C(=O)NCCC(=O)NCCCN(C)C)n(C)c%12)n(C)c%11)n(C)c%10)n9)n(C)c8)n7)n(C)c6)n(C)c5)n(C)c4)n3)n(C)c2)n1` [GBP1106], the “binding to target sequence (migration of double-stranded DNA in gel shift)” value in experiment [1] is listed as “decreased the migration degree”. The “inhibition of expression of TGFβ1 gene” value in the experiment with TGF-β1 messenger RNA is reported as “up to 50%”.

With `CNCCCNC(=O)CCNC(=O)c1cc(NC(=O)c2cc(NC(=O)CCNC(=O)c3cc(NC(=O)c4cc(NC(=O)c5cc(NC(=O)CCCNC(=O)c6nc(NC(=O)c7cc(NC(=O)c8nc(NC(=O)CCNC(=O)c9nc(NC(=O)c%10nc(NC(C)=O)cn%10C)cn9C)cn8C)cn7C)cn6C)cn5C)cn4C)cn3C)cn2C)cn1C` [GBP1105], the “binding to target sequence (migration of double-stranded DNA in gel shift)” value in experiment [1] is listed as “decreased the migration degree”. Besides, in the experiment with TGF-β1 messenger RNA, the “inhibition of expression of TGFβ1 gene” value is “up to 50%”.
